From patent publication EP3748362A1, “IN VITRO METHOD FOR DETECTING RENAL DISEASE” (Fundacion Instituto De Investigacion Sanitaria Fundacion …, priority 2019, dated 2020) come the findings set out here.

The structures appear in SMILES notation.

In one experiment the test system is NF-κB1. Briefly: Canonical NF-κB1 activation (western blot) in TWEAK-stimulated HK2 cells. Type of experiment: cell-based, Human. Particulars: 12 µM paricalcitol for 48 hours, TWEAK 100 ng/ml 15 min, p65 and IκBα phosphorylation. Here is the method:
Human kidney proximal tubule epithelial cells (HK2 cell line, ATCC CRL-2190) were grown in RPMI 1640 with 10% fetal bovine serum (FBS), 1% glutamine, 100 U/ml penicillin, 100 µg/ml streptomycin, 5 µg/ml insulin-transferrin-selenite and 36 ng/ml hydrocortisone in 5% CO2 at 37° C. When cells reached 60 to 70% confluence, they were serum-depleted for 24 hours before the experiment.
Cells were stimulated with 100ng/ml recombinant human soluble TWEAK (Millipore) or p-200 µg/ml cresyl-sulfate (Raymond Vanholder and Griet Glorieux, University of Gent, Belgium). Concentrations of TWEAK and p-cresyl-sulfate were based on previously published dose-response experiments (Poveda et al. 2014; Sanz et al. 2008). In some experiments cells were preincubated for 48 hours with the paricalcitol 12 µmol/L (Abbott) prior to stimulation. DMSO, used as a solvent in some cases, had no effect on cell viability or on gene expression levels.
For western blot, cell (25 µg/lane) and kidney (100-150 µg/lane) protein extracts were separated on 6%-12% polyacrylamide-SDS gels under reducing conditions. […] Autoradiographs were scanned using the Gel Doc™ EZ imager and analyzed with the Image Lab 3.0 software (BioRad).

The next experiment concerns NF-κB2. Kind of experiment: Non-canonical NF-κB2 activation and NF-κB2 targets in kidneys of TWEAK-injected mice. Type of experiment: in vivo. Here is the method:
All animal procedures were performed according to the guidelines of animal research in the European Community and with prior approval by the Ethics Committee of the Health Research of the IIS-Fundacion Jiménez Díaz. For in vivo studies, mice received a daily intraperitoneal injection of the VDRA Paricalcitol starting 48 hours prior to induction of kidney damage.
At the time of sacrifice, animals were anesthetized with 5 mg/kg xylazine (Rompun, Bayer AG) and 35 mg/kg ketamine (Ketolar, Pfizer) and the kidneys perfused in situ with cold saline before removal. Then, kidney portions were fixed in formalin buffer for immunohistochemistry studies or immediately frozen in liquid nitrogen for gene and protein studies.
TWEAK administration: C57BL/6 female mice (9-12 weeks, weight 20 g, 7-8 animals per group), received a single intraperitoneal injection of 0.5 µg TWEAK dissolved in saline and were sacrificed 24 hours later, as previously described (Sanz et al. 2008). Controls were injected with the saline vehicle (n=8-10 mice per group). TWEAK endotoxin level were <0.1 ng/mg, confirmed by MALDI-TOF. Some animals received paricalcitol 750 ng/kg/day, or the NF-κB2 inhibitor SN52, 0.7 mg/mouse/day, starting 48 hours before TWEAK administration. Animals were sacrificed 24 hours later. The dose of paricalcitol was chosen based on prior experience in mild inflammatory kidney conditions.
Paraffin-embedded kidney sections (3 µm) were stained using conventional methods. Antigen retrieval was performed by PTlink link system (Dako Diagnostics) with sodium citrate buffer (10 mmol/L) adjusted to pH 6-9 depending on the immunohistochemical marker, followed by immunohistochemical staining in a Dako Autostainer. Steps: 1) endogenous peroxidase blockade; 2) primary antibodies incubation; anti-CD3 (1:300; Dako) or anti-F4/80 (1:5000; Serotec); NF-κB p-p65 (1:200; Cell Signalling); NF-κB2 p52 (1:50; Cell Signaling); RelB (1:50; Santa Cruz Biotechnology); CCL21 (1:90; Santa Cruz Biotechnology); 3) washing; 4) DUOFLEX Doublestain EnVision™ treatment, using 3,3'-diaminobenzidine as chromogen. For F4/80 staining a rabbit anti-rat linker was used before EnVision. Sections were counterstained with Carazzi's hematoxylin. […] For each sample (processed by duplicate in a blinded manner), the average value was obtained from the analysis of 4 fields (20X objective) as density/mm2 or percentage stained area vs total analyzed area. Data are expressed as fold increase over control mice, as mean ± SEM of 8-10 animals per group. […]
For western blot, cell (25 µg/lane) and kidney (100-150 µg/lane) protein extracts were separated on 6%-12% polyacrylamide-SDS gels under reducing conditions. […] Autoradiographs were scanned using the Gel Doc™ EZ imager and analyzed with the Image Lab 3.0 software (BioRad). […]

As for `C[C@H](/C=C/[C@H](C)C(C)(C)O)[C@H]1CC[C@H]2/C(=C/C=C3C[C@@H](O)C[C@H](O)C3)CCC[C@]12C` [paricalcitol], the “TWEAK-induced NF-κB1 activation” value in the experiment with NF-κB1 is recorded as “did not modulate”. Moreover, in the experiment with NF-κB2 (paricalcitol 750 ng/kg/day or SN52 0.7 mg/mouse/day, real time PCR), the “renal CCL21A and CCL19 gene expression” value was “reduced”. The “TWEAK-induced NF-κB2 activation in the kidney: nuclear p52 and RelB accumulation in tubular epithelial cells” value in the experiment with NF-κB2 (paricalcitol 750 ng/kg/day, immunohistochemistry, western blot) is “reduced”. The “TWEAK-induced p52 and RelB DNA binding activities” value in the experiment on NF-κB2 (renal nuclear protein extracts, paricalcitol 750 ng/kg/day, ELISA) was “inhibited”. Besides, the CCL21 protein levels entry in the experiment on NF-κB2 (total kidney proteins, paricalcitol 750 ng/kg/day, western blot) is recorded as “reduced”.
